According to PubChem BioAssay (NCI):
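Method: 48-hour compound exposure of cells in 96-well plates, five concentrations, linear interpolation of endpoints. TGI is the concentration that stops growth completely.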

Tests used:
Experiment in all cases: DTP human tumour cell line panel, 48 h
K-562 leukemia = tested on: K-562 leukemia
IGROV1 ovarian = tested on: IGROV1 ovarian
A498 renal = tested on: A498 renal
MDA-MB-435 = tested on: MDA-MB-435
U251 CNS = tested on: U251 CNS
SR leukemia = tested on: SR leukemia
OVCAR-3 ovarian = tested on: OVCAR-3 ovarian
MDA-MB-231 breast = tested on: MDA-MB-231 breast
DU-145 prostate = tested on: DU-145 prostate
UACC-62 melanoma = tested on: UACC-62 melanoma

| Structure (SMILES) | TGI (K-562 leukemia) | TGI (IGROV1 ovarian) | TGI (A498 renal) | TGI (MDA-MB-435) | TGI (U251 CNS) | TGI (SR leukemia) | TGI (OVCAR-3 ovarian) | TGI (MDA-MB-231 breast) | TGI (DU-145 prostate) | TGI (UACC-62 melanoma) |
| --- | --- | --- | --- | --- | --- | --- | --- | --- | --- | --- |
| O=C(O)CSC(NC(=O)C(C(F)(F)F)C(F)(F)F)(C(F)(F)F)C(F)(F)F | > 100 µM | > 100 µM | > 100 µM | > 100 µM | > 100 µM | > 100 µM |  |  |  |  |
| CN(C)P(=O)(Oc1occc1C(O)Cc1ccccc1)N(C)C (stereo not drawn) |  |  | > 100 µM | > 100 µM | > 100 µM |  | > 100 µM | > 100 µM |  |  |
| C[C@]1(S(=O)(=O)c2ccccc2)C[C@H]2N(Cc3ccccc3)[C@@H]1CCC21OCCO1 | > 100 µM | > 100 µM |  | > 100 µM | > 100 µM |  | > 100 µM | > 100 µM | > 100 µM | > 100 µM |
| CC1=CC(=O)CC2(C)CCC(C(C)CC(=O)CC(C)C)CC12 (stereo not drawn) | > 100 µM | 72.5 µM | > 100 µM | 39 µM | > 100 µM | 41.6 µM |  | > 100 µM | > 100 µM | 59.1 µM |
| COc1cc(C=C2C(=O)NC(=S)NC2=O)cc(OC)c1OC | > 100 µM | > 100 µM |  | > 100 µM | > 100 µM |  | > 100 µM | > 100 µM | > 100 µM | > 100 µM |
| OCC(O)C(O)C(O)/C=N/Nc1nc(O)c(/C=C2\C=Nc3ccccc32)[nH]1 (stereo not drawn) | > 100 µM | > 100 µM |  | > 100 µM | > 100 µM |  | > 100 µM | > 100 µM | > 100 µM | > 100 µM |
| COC(=O)C1OC(O[C@H]2CC[C@]3(C)[C@H]4CC=C5[C@@H]6CC(C)(C)CC[C@]6(C(=O)OC6OCC(O)C(O)C6OC6OC(C)C(OC7OCC(OC8OCC(O)C(O)C8O)C(O)C7O)C(O)C6O)[C@H](O)C[C@@]5(C)[C@]4(C)CC[C@H]3C2(C)C)C(O)C(O)C1O (stereo partly drawn) |  | 9.34 µM | 3.94 µM | 3.58 µM | 18.2 µM |  | 20.9 µM | 9.33 µM | 16.9 µM | 10.6 µM |
| COC(=O)c1cc2c(cc1CC(Cc1ccc3c(c1)CCC3)C(=O)OC)CCC2 (stereo not drawn) | > 100 µM | > 100 µM | > 100 µM | > 100 µM | > 100 µM | 57.4 µM | > 100 µM | > 100 µM | > 100 µM | > 100 µM |
| COc1cc2c(cc1OC)C13CC[N+]4(C)CC5=CCOC6CC(=O)N2C1C6C5CC34[O-] (stereo not drawn) | > 100 µM | > 100 µM | > 100 µM | > 100 µM | > 100 µM | > 100 µM | > 100 µM | > 100 µM | > 100 µM | > 100 µM |
| CC(C)(C)OC(=O)C1C(=O)NC(=O)CC1C(COCc1ccccc1)OCc1ccccc1 (stereo not drawn) | > 100 µM | 52.5 µM |  | 49.7 µM | 40.2 µM | 64.1 µM | 46.3 µM | 36.4 µM | > 100 µM |  |
| Nc1nc(Nc2ccc(Cl)cc2)sc1C(=O)c1cccs1 |  | > 100 µM | 72.9 µM | > 100 µM | 38.4 µM | 14.9 µM | 72.1 µM | > 100 µM | > 100 µM | > 100 µM |
| Cc1c(C#N)c(N)n(C2OCC(O)C(O)C2O)c(=S)c1C#N (stereo not drawn) | > 100 µM | > 100 µM | > 100 µM | > 100 µM |  | > 100 µM | > 100 µM | > 100 µM | > 100 µM | > 100 µM |
| CC1(C)[C@@H](Cn2cnc3c(Cl)nc(N)nc32)CC[C@@]1(C)CO | > 100 µM |  | > 100 µM | 64.2 µM | > 100 µM |  | > 100 µM | > 100 µM | > 100 µM | 38 µM |
| CCOC(=O)[C@@H]1ON2O[C@@H](OC3CCCC3(c3ccccc3)c3ccccc3)C[C@H]3OC(=O)[C@@H]1C32 (stereo partly drawn) |  | > 100 µM | > 100 µM | 34.2 µM | > 100 µM | 61.4 µM | 54.1 µM | 49 µM | 55.6 µM | 42.2 µM |
| CC(C)CCn1nc(N)c2nc3ccccc3nc21 | > 100 µM | > 100 µM | > 100 µM | > 100 µM | > 100 µM | > 100 µM | > 100 µM |  |  | > 100 µM |
| S=C1CC(c2ccccc2)Sc2ccc(Cl)cc2N1 (stereo not drawn) | > 100 µM | > 100 µM |  | > 100 µM | > 100 µM | > 100 µM | > 100 µM | > 100 µM | > 100 µM | > 100 µM |
| O=c1n(Cc2ccccc2)c(=O)n2c(=O)n(Cc3ccccc3)c(=O)n12 | > 100 µM |  | > 100 µM | > 100 µM | > 100 µM | > 100 µM |  | > 100 µM | > 100 µM | > 100 µM |
| Cc1ccc(S(=O)(=O)NC(=O)NNc2ccc(F)cc2)cc1 | > 58.2 µM | > 100 µM | > 100 µM | > 100 µM | > 100 µM |  | > 100 µM | > 100 µM | > 100 µM | > 100 µM |
| CN1COCc2cc3cc4c(cc3nc21)OCCO4 | > 100 µM | > 100 µM | > 100 µM | > 100 µM | > 100 µM |  |  | > 100 µM |  | > 100 µM |
| COc1cc2c(c(O)c1O)-c1ccc(OC)c(=O)cc1C(NC(C)=O)CC2 (stereo not drawn) | 29.1 µM | > 100 µM | > 89.9 µM |  | 25.8 µM | 74.3 µM | 8.3 µM |  |  | 45.7 µM |
| NS(=O)(=O)c1ccc(NC(NC(=O)C(C(F)(F)F)C(F)(F)F)(C(F)(F)F)C(F)(F)F)cc1 | > 100 µM | > 100 µM |  | > 100 µM | > 100 µM | > 100 µM | > 100 µM | > 100 µM | > 100 µM | > 100 µM |
| Cc1ccc(-c2c(C#N)c(-c3ccc([N+](=O)[O-])cc3)c(C#N)c(=O)n2NS(=O)(=O)c2ccccc2)cc1 | > 100 µM | > 100 µM | > 100 µM | > 100 µM | > 100 µM |  |  | > 100 µM |  | 64 µM |
| COc1ccc2c(c1)CCN=C2c1ccccc1CCCCl | > 100 µM | > 100 µM | > 100 µM | > 100 µM | > 100 µM |  | > 100 µM | 63.7 µM | > 100 µM | > 100 µM |
